Assay results from doi:10.1101/2020.05.21.106633v1 (bioRxiv, 2020).
Non-standard residues stand in square brackets, D forms with d. Residues, ends and D or L forms follow the SMILES beside them. *: point of attachment. FITC = O=C1OC2(c3ccc(O)cc3Oc3cc(O)ccc32)c2ccc(NC(=S)*)cc21; Ahx = NCCCCCC(=O)O

Experiments:
[1] = target: T1, recombinant dg-Bcan protein (deglycosylated recombinant human brevican) (Homo sapiens, UniProt Q96GW7); assay: Octet binding kinetic analysis; settings: for Rmax (maximal response in response unit): Octet steady state analysis, one site specific binding fit
T1 sequence (Q96GW7 23-911): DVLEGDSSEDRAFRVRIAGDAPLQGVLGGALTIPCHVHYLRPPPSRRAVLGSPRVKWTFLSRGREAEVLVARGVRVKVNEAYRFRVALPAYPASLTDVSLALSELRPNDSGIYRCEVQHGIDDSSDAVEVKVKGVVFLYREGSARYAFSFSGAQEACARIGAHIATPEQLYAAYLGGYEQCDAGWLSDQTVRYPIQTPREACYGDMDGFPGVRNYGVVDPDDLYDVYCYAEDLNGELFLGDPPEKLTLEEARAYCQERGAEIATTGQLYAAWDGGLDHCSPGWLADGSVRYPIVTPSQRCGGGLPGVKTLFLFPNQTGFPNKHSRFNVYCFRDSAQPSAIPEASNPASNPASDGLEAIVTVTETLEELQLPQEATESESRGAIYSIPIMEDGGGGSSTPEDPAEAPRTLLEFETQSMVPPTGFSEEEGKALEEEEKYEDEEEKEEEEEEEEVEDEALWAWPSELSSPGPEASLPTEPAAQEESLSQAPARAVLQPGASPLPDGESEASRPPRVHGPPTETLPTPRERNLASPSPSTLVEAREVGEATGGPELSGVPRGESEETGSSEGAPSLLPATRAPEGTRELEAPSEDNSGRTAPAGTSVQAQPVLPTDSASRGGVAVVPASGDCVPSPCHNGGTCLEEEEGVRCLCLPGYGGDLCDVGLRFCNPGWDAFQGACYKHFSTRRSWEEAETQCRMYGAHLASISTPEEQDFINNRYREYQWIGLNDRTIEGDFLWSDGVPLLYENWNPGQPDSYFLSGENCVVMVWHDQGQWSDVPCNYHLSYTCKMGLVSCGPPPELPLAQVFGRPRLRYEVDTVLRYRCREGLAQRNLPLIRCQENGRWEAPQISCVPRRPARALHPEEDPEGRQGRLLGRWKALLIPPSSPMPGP

GBM-6 cells = assay: CellTitre-Glo cell viability assay, GBM-6; assay type: cell-based, human; settings: BTP-7 50 µM, 48 hrs, nwell = 3
GBM-6 neurospheres = assay: Collagen cell invasion assay; assay type: cell-based, human; settings: BTP-7 50 µM, n = 3

Kd [1] | Compound | Rmax (maximal response in response unit) [1] | effect on GBM-6 proliferation (GBM-6 cells) | effect on GBM-6 invasion in collagen (GBM-6 neurospheres)
 | CC(C)[C@@H](NC(=O)[C@@H](Cc1c[nH]cn1)NC(=O)CNC(=O)[C@@H](Cc1c[nH]c2ccccc12)NC(=O)[C@@H](CCCCN)NC(=O)[C@H](N)[C@H](C)O)C(=O)N[C@H](CC(N)=O)C(=O)N[C@H](CCCCN)C(N)=O [BTP-7] | 0.307 | not affected | not affected
 | CC[C@@H](C)[C@@H](NC(=O)[C@@H](C)NC(=O)[C@@H](CCCNC(=N)N)NC(=O)[C@@H](CCC(N)=O)NC(=O)[C@@H](CCCNC(=N)N)NC(=O)[C@@H](CCCNC(=N)N)NC(=O)[C@@H](CC(=O)O)NC(=O)[C@@H](C)N)C(N)=O [BTP-9] (H-[dA][dD][dR][dR][dQ][dR][dA][dI]-NH2; N-terminus and C-terminus assumed) | 0.338 |  | 
3.8 µM | CC(C)[C@@H](NC(=O)[C@@H](Cc1c[nH]cn1)NC(=O)CNC(=O)[C@@H](Cc1c[nH]c2ccccc12)NC(=O)[C@@H](CCCCN)NC(=O)[C@H](N)[C@H](C)O)C(=O)N[C@H](CC(N)=O)C(=O)N[C@H](CCCCN)C(=O)NCCCCCC(=O)N[C@@H](CCCCNC(=S)Nc1ccc2c(c1)C(=O)OC21c2ccc(O)cc2Oc2cc(O)ccc21)C(N)=O [Fluorescein-conjugated BTP-7] (H-[dT][dK][dW]G[dH][dV][dN][dK][Ahx]K(FITC)-NH2) |  |  | 
